Data set [1] deals with T1, full-length beta-Catenin (Uniprot ID P35222) (Homo sapiens, UniProt P35222).
T1 construct: 10 nM full-length beta-Catenin (Uniprot ID P35222)
T1 sequence (P35222 1-781): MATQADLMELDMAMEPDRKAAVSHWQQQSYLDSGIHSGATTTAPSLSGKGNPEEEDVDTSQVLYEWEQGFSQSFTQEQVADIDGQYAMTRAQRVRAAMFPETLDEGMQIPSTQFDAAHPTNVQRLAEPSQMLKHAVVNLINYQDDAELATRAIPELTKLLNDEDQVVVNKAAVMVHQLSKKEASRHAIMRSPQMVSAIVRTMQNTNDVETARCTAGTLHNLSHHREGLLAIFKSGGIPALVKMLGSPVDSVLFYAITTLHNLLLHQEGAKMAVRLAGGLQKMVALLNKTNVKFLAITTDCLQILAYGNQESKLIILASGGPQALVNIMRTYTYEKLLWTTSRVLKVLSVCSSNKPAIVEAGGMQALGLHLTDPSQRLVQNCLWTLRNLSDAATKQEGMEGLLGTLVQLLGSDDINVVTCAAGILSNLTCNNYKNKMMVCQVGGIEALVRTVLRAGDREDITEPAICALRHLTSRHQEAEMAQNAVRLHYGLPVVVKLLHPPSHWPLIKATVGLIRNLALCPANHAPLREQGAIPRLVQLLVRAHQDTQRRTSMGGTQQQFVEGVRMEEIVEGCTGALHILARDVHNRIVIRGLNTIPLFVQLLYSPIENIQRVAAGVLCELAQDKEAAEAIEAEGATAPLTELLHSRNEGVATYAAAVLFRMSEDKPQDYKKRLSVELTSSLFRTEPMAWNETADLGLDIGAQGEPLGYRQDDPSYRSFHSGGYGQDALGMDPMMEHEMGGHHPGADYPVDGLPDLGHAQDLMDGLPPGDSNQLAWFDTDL
Description: Fluorescence polarization IC50 (beta-catenin / 5FAM-TCF4 10-53 competition). The format is binding. To be noted: read-out: beta-Catenin FP IC50.

A further data set in a line: CHI Log D procedure. The format is physicochemical. To be noted: pH 7.4, CHI Log D.
Another data set can be described thus: Solubility in PBS. In kind it is physicochemical. The gist of the method: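 Read-out is the HPLC peak area of the supernatant from ultracentrifuged PBS solution, scaled against a 50 μM peptide DMSO injection; value reported as [(PBS area)/(DMSO area)]*50 uM.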
Data set [2] concerns the target T2, beta-catenin/TCF4 engagement (Homo sapiens, UniProt P35222).
T2 construct: expressed in transfected cells; host or cells: HEK293
T2 sequence (P35222 1-781): T1 sequence (P35222 1-781)
Briefly: Nano-BRET target engagement assay (B-cat-Halo & TCF4-Luc in HEK293 cells). The format is cell-based. To be noted: read-out: NanoBRET Abs IC50.

Values after ≈ are worked out from the molar mass of the structure shown. Read-outs that look alike come from different tables or passages of the source.

This is an account of results in patent publication US20240116985A1, “STAPLED PEPTIDES AND METHODS THEREOF” (priority 2020, published 2024).

With `CC(=O)N1CCC[C@]12CC=CCCCC1(CCCC=CCCCCCC[C@@](C)(C(=O)N[C@@H](Cc3ccccc3Cl)C(=O)N[C@@H](Cc3csc4ccccc34)C(=O)N[C@H](C(N)=O)[C@@H](C)O)NC(=O)[C@H]([C@@H](C)O)NC(=O)[C@H](Cc3ccccc3)NC(=O)[C@H](C)NC(=O)[C@H](C)NC(=O)[C@H](CC(=O)O)NC(=O)[C@H](CC(=O)O)NC1=O)NC(=O)[C@H](CC(C)(C)C)NC(=O)[C@H](CC(=O)O)NC2=O` (stereo partly drawn) [I-1090, Ac-PL3-Asp-Npg-B5-Asp-Asp-Ala-Ala-Phe-Thr-S8-2C1F-BztA-Thr-NH2], the IC50 in data set [1] came out at 18 nM; in data set [2], 6100 nM. Besides, the chromatographic logD in the data set “CHI Log D procedure” was found to be 2.98. In addition, the Solubility in the data set “Solubility in PBS” (Solubility (uM)) stood at 39 µM (≈ 72.7 µg/mL).

On to `CC(=O)N1CCC[C@]12CC=CCCCC1(CCCC=CCCCCCC[C@@](C)(C(=O)N[C@@H](Cc3ccccc3Cl)C(=O)N[C@@H](Cc3csc4ccccc34)C(=O)N[C@H](C(N)=O)[C@@H](C)O)NC(=O)[C@H]([C@@H](C)O)NC(=O)[C@H](Cc3ccccc3)NC(=O)[C@H](C)NC(=O)[C@H](C)NC(=O)[C@H](CCC(=O)O)NC(=O)[C@H](CC(=O)O)NC1=O)NC(=O)[C@H](CC(C)(C)C)NC(=O)[C@H](CC(=O)O)NC2=O` (stereo partly drawn) [I-1091, Ac-PL3-Asp-Npg-B5-Asp-Glu-Ala-Ala-Phe-Thr-S8-2C1F-BztA-Thr-NH2], for which the IC50 was determined as 27 nM in data set [1] and 11400 nM in data set [2]. The molecule also showed a chromatographic logD in the data set “CHI Log D procedure” of 3.04. In the data set “Solubility in PBS” (Solubility (uM)), this molecule returned a Solubility of 33 µM (≈ 62 µg/mL).

As to `CC(=O)N1CCC[C@]12CC=CCCCC1(CCCC=CCCCCCC[C@@](C)(C(=O)N[C@@H](Cc3ccccc3Cl)C(=O)N[C@@H](Cc3csc4ccccc34)C(=O)N[C@@H](C(N)=O)[C@H](C)O)NC(=O)[C@H]([C@@H](C)O)NC(=O)[C@H](Cc3ccccc3)NC(=O)[C@H](C)NC(=O)[C@H](C)NC(=O)[C@H](CC(=O)O)NC(=O)[C@H](CC(=O)O)NC1=O)NC(=O)[C@H](CC(C)(C)C)NC(=O)[C@H](CC(=O)O)NC2=O` (stereo partly drawn) [I-1092, Ac-PL3-Asp-Npg-B5-Asp-Asp-Ala-Ala-Phe-Thr-S8-2C1F-BztA-dThr-NH2], the IC50 turned out to be 26 nM in data set [1] and 7700 nM in data set [2]. The molecule further returned a chromatographic logD in “CHI Log D procedure” of 3.17. The molecule also displayed a Solubility in “Solubility in PBS” (Solubility (uM)) of 28 µM (≈ 52.2 µg/mL).

With `CC(=O)N1CCC[C@]12CC=CCCCC1(CCCC=CCCCCCC[C@@](C)(C(=O)N[C@@H](Cc3ccccc3Cl)C(=O)N[C@@H](Cc3csc4ccccc34)C(=O)N[C@@H](CCC(N)=O)C(N)=O)NC(=O)[C@H](CC(C)C)NC(=O)[C@H](Cc3ccccc3)NC(=O)[C@H](C)NC(=O)[C@H](C)NC(=O)[C@H](CCC(=O)O)NC(=O)[C@H](CC(=O)O)NC1=O)NC(=O)[C@H](CC(C)(C)C)NC(=O)[C@H](CC(=O)O)NC2=O` (stereo partly drawn) [I-1096, Ac-PL3-Asp-Npg-B5-Asp-Glu-Ala-Ala-Phe-Leu-S8-2C1F-BztA-Gln-NH2], the figures for the IC50 in data set [1] and in data set [2] were 17 nM and 8600 nM, respectively. Besides, the chromatographic logD in “CHI Log D procedure” was determined as 3.18. Besides, in the data set “Solubility in PBS”, the “Solubility” value stood at 10 µM (≈ 19.2 µg/mL).

Regarding `CC(=O)N1CCC[C@]12CC=CCCCC1(CCCC=CCCCOC(=O)N3CC[C@@](C(=O)N[C@@H](Cc4ccccc4)C(=O)N[C@@H](Cc4csc5ccccc45)C(=O)N[C@@H](CO)C(N)=O)(C3)NC(=O)[C@H](CO)NC(=O)[C@H](Cc3ccccc3)NC(=O)[C@H](C)NC(=O)[C@H](C)NC(=O)[C@H](CC(=O)O)NC(=O)[C@H](CC(=O)O)NC1=O)NC(=O)[C@H](CC(C)(C)C)NC(=O)[C@H](CC(=O)O)NC2=O` (stereo partly drawn) [I-1099, Ac-PL3-Asp-Npg-B5-Asp-Asp-Ala-Ala-Phe-Ser-PyrS2-Phe-BztA-Ser-NH2], the half-inhibitory concentration (IC50) in data set [1] amounted to 9 nM; in data set [2] (absolute IC50), 9000 nM. The molecule further registered a chromatographic logD in “CHI Log D procedure” of 2.16. The concentration in solution in “Solubility in PBS” (Solubility (uM)) (Solubility) was 47 µM (≈ 86.7 µg/mL).

Regarding `CC(=O)N1CCC[C@]12CC=CCCCC1(CCCC=CCCCOC(=O)N3CC[C@@](C(=O)N[C@@H](Cc4ccccc4)C(=O)N[C@@H](Cc4csc5ccccc45)C(=O)N[C@@H](CO)C(N)=O)(C3)NC(=O)[C@H](CO)NC(=O)[C@H](Cc3ccccc3)NC(=O)[C@H](C)NC(=O)[C@H](C)NC(=O)[C@H](CC(=O)O)NC(=O)[C@H](CC(=O)O)NC1=O)NC(=O)[C@H](CC1CCCCC1)NC(=O)[C@H](CC(=O)O)NC2=O` (stereo partly drawn) [I-1100, Ac-PL3-Asp-Cha-B5-Asp-Asp-Ala-Ala-Phe-Ser-PyrS2-Phe-BztA-Ser-NH2], the results for the IC50 in data set [1] and in data set [2] were 16 nM and 24300 nM, respectively. In the data set “CHI Log D procedure”, this molecule registered a chromatographic logD of 2.36. The molecule also showed a Solubility in “Solubility in PBS” (Solubility (uM)) of 46 µM (≈ 86 µg/mL).

For the molecule `CC(=O)N1CCC[C@]12CC=CCCCC1(CCCC=CCCCOC(=O)N3CC[C@@](C(=O)N[C@@H](Cc4ccccc4F)C(=O)N[C@@H](Cc4csc5ccccc45)C(=O)N[C@@H](CO)C(N)=O)(C3)NC(=O)[C@H](CO)NC(=O)[C@H](Cc3ccccc3)NC(=O)[C@H](C)NC(=O)[C@H](C)NC(=O)[C@H](CC(=O)O)NC(=O)[C@H](CC(=O)O)NC1=O)NC(=O)[C@H](CC(C)(C)C)NC(=O)[C@H](CC(=O)O)NC2=O` (stereo partly drawn) [I-1101, Ac-PL3-Asp-Npg-B5-Asp-Asp-Ala-Ala-Phe-Ser-PyrS2-2FF-BztA-Ser-NH2], the IC50 in data set [1] stood at 14 nM; in data set [2], 27000 nM. Moreover, the chromatographic logD in “CHI Log D procedure” was found to be 2.22. In “Solubility in PBS” (Solubility (uM)), this molecule had a Solubility of 48 µM (≈ 89.4 µg/mL).

For the molecule `COc1ccccc1C[C@H](NC(=O)[C@]12CCN(C1)C(=O)OCCCC=CCCCC1(CCCC=CC[C@]3(CCCN3C(C)=O)C(=O)N[C@@H](CC(=O)O)C(=O)N[C@@H](CC(C)(C)C)C(=O)N1)C(=O)N[C@@H](CC(=O)O)C(=O)N[C@@H](CC(=O)O)C(=O)N[C@@H](C)C(=O)N[C@@H](C)C(=O)N[C@@H](Cc1ccccc1)C(=O)N[C@@H](CO)C(=O)N2)C(=O)N[C@@H](Cc1csc2ccccc12)C(=O)N[C@@H](CO)C(N)=O` (stereo partly drawn) [I-1103, Ac-PL3-Asp-Npg-B5-Asp-Asp-Ala-Ala-Phe-Ser-PyrS2-2OMeF-BztA-Ser-NH2], the IC50 worked out at 15 nM in data set [1] and 16700 nM in data set [2]. For the same molecule, in “CHI Log D procedure”, the chromatographic logD was determined as 2.18. Also, the concentration in solution in “Solubility in PBS” (Solubility (uM)) (Solubility) came to 46 µM (≈ 86.2 µg/mL).

On to `COc1ccccc1C[C@H](NC(=O)[C@]12CCN(C1)C(=O)OCCCC=CCCCC1(CCCC=CC[C@]3(CCCN3C(C)=O)C(=O)N[C@@H](CC(=O)O)C(=O)N[C@@H](CC3CCCCC3)C(=O)N1)C(=O)N[C@@H](CC(=O)O)C(=O)N[C@@H](CC(=O)O)C(=O)N[C@@H](C)C(=O)N[C@@H](C)C(=O)N[C@@H](Cc1ccccc1)C(=O)N[C@@H](CO)C(=O)N2)C(=O)N[C@@H](Cc1csc2ccccc12)C(=O)N[C@@H](CO)C(N)=O` (stereo partly drawn) [I-1104, Ac-PL3-Asp-Cha-B5-Asp-Asp-Ala-Ala-Phe-Ser-PyrS2-2OMeF-BztA-Ser-NH2], for which the IC50 is 10 nM in data set [1] and 17700 nM in data set [2]. In addition, the chromatographic logD in “CHI Log D procedure” turned out to be 2.38. Further, in “Solubility in PBS” (Solubility (uM)), the concentration in solution (Solubility) was 48 µM (≈ 91.2 µg/mL).

As to `CC(=O)N1CCC[C@]12CC=CCCCC1(CCCC=CCCCOC(=O)N3CC[C@@](C(=O)N[C@@H](Cc4ccccc4)C(=O)N[C@@H](Cc4csc5ccccc45)C(=O)N[C@@H](CO)C(N)=O)(C3)NC(=O)[C@H](CO)NC(=O)[C@H](CC3CCCCC3)NC(=O)[C@H](C)NC(=O)[C@H](C)NC(=O)[C@H](CC(=O)O)NC(=O)[C@H](CC(=O)O)NC1=O)NC(=O)[C@H](CC(C)(C)C)NC(=O)[C@H](CC(=O)O)NC2=O` (stereo partly drawn) [I-1105, Ac-PL3-Asp-Npg-B5-Asp-Asp-Ala-Ala-Cha-Ser-PyrS2-Phe-BztA-Ser-NH2], the IC50 in data set [1] was 36 nM; in data set [2] (absolute IC50), more than 20000 nM. This molecule also registered a chromatographic logD in “CHI Log D procedure” of 2.33. Further, the Solubility in “Solubility in PBS” (Solubility (uM)) was determined as 48 µM (≈ 88.8 µg/mL).

For the molecule `CC(=O)N1CCC[C@]12CC=CCCCC1(CCCC=CCCCOC(=O)N3CC[C@@](C(=O)N[C@@H](CC4CCCCC4)C(=O)N[C@@H](Cc4csc5ccccc45)C(=O)N[C@@H](CO)C(N)=O)(C3)NC(=O)[C@H](CO)NC(=O)[C@H](Cc3ccccc3)NC(=O)[C@H](C)NC(=O)[C@H](C)NC(=O)[C@H](CC(=O)O)NC(=O)[C@H](CC(=O)O)NC1=O)NC(=O)[C@H](CC(C)(C)C)NC(=O)[C@H](CC(=O)O)NC2=O` (stereo partly drawn) [I-1106, Ac-PL3-Asp-Npg-B5-Asp-Asp-Ala-Ala-Phe-Ser-PyrS2-Cha-BztA-Ser-NH2], the IC50 in data set [1] was 23 nM; in data set [2] (absolute IC50) it was more than 20000 nM. The molecule further showed a chromatographic logD in “CHI Log D procedure” of 2.44. In the data set “Solubility in PBS” (Solubility (uM)), this molecule displayed a Solubility of 47 µM (≈ 87 µg/mL).
